The source of these data is patent publication US7268129B2, “Fluorinated benzothiadiazine compounds” (Les Laboratoires Servier, priority 2005, dated 2007).

Assay [1] concerns Wistar rats aged 17 months. Briefly: Object recognition in Wistar rats aged 17 months. The following applies: male Wistar rats aged 17 months; 0.1 mg/kg by the oral route; 1 hour between sessions. The assay is classed as in vivo, rat. On the procedure: In old rats there is a deficiency in memory retention in the object recognition test. Prior to the test, the animals (male Wistar rats aged 17 months: CERJ, France) are habituated to the environment (an enclosure without an object). In the course of a first session, the rats are placed (3 minutes) in the enclosure, in which there are 2 identical objects. The duration of exploration is measured for each object. In the course of the second session (3 minutes), 1 hour later, 1 of the 2 objects is replaced by a new object. The duration of exploration is measured for each object. The assessment criterion is the difference, Delta, expressed in seconds, between the exploration times for the new object and for the familiar object in the course of the second session.

For the next assay, the system named is AMPA receptors. Briefly: Effect of compounds on the ionic current induced by AMPA in Xenopus oocytes. In kind it is cell-based. The following applies: Xenopus oocytes injected with rat cerebral cortex mRNA, (S)-AMPA 10 μM, voltage-clamp. On the procedure:
mRNA's are prepared from cerebral cortex of male Wistar rats by the caesium chloride/guanidium thiocyanate method. The poly (A^+) mRNA's are isolated using the PolyATtract mRNA Isolation systems kit (Promega, USA) and injected at a level of 50 ng per oocyte. The oocytes are incubated for 3 to 4 days at 18° C. to permit expression of the receptors and are then stored at 4° C. until used.
Electrophysiological recordings are carried out continuously at ambient temperature in a Plexiglass® chamber using OR2 medium (J. Exp. Zool., 1973, 184, 321-334) by the “voltage-clamp” method using two electrodes, with a third electrode placed in the bath serving as reference.
All the compounds and the AMPA are applied via the perfusion medium. (S)-AMPA is used in a concentration of 10 μM. The ionic current induced by the application of AMPA in the absence and presence of compounds is measured. For each compound studied, the concentration that doubles (EC2×) or quintuples (EC5×) the intensity of the current induced by AMPA alone (5 to 50 nA) is determined.

Assay [2] concerns Wistar rats aged 3 months. Briefly: Object recognition in adult Wistar rats aged 3 months. In kind it is in vivo, rat. The following applies: male Wistar rats aged 3 months; 0.03 to 1 mg/kg by the oral route 60 minutes before each session; 24 hours between sessions. An excerpt: The object recognition test in the Wistar rat was initially developed by ENNACEUR and DECACOUR (Behav. Brain Res., 1988, 31, 47-59). The test is based on the spontaneous exploratory activity of the animal and has the characteristics of episodic memory in humans. This memory test is sensitive to ageing (SCALL et al., Eur. J. Pharmacol., 1997, 325, 173-180) and to cholinergic dysfunctions (BARTOLINI et al., Pharm. Biochem. Behav. 1996, 53(2), 277-283) and is based on the differences in the exploration of 2 objects of fairly similar shape—one familiar, the other new. Prior to the test, the animals (male Wistar rats aged 3 months: CERJ, France) are habituated to the environment (an enclosure without an object). In the course of a first session, the rats are placed (3 minutes) in the enclosure, in which there are 2 identical objects. The duration of exploration is measured for each object. In the course of the second session (3 minutes), 24 hours later, 1 of the 2 objects is replaced by a new object. The duration of exploration is measured for each object. The assessment criterion is the difference, Delta, expressed in seconds, between the exploration times for the new object and for the familiar object in the course of the second session.

Structures are written as SMILES. Where two headings read alike, the source gives them in different places.

`O=S1(=O)NCN(CCF)c2ccc(Cl)cc21` [Example 1, 7-Chloro-4-(2-fluoroethyl)-3,4-dihydro-2H-1,2,4-benzothiadiazine 1,1-dioxide]: in assay [1], the “age-related deficiency in memory retention (object recognition)” value is listed as “significantly opposes the age-related deficiency in memory retention”. In addition, the concentration multiplying AMPA current (EC2× / EC5×) in the assay on AMPA receptors (read-out: EC2× (concentration that doubles the intensity of the current induced by AMPA alone)) stood at 6.7 ± 1.4 µM; with AMPA receptors (read-out: EC5× (concentration that quintuples the intensity of the current induced by AMPA alone)) it was 14.5 ± 0.6 µM. In addition, the “memory retention (object recognition, Delta of exploration times)” value in assay [2] is “significantly improves memory retention”.
